Data from article PMC9485059 (iScience, 2022).

Legend:
BAK [1] = target: T1, BAK (Homo sapiens, UniProt Q16611); test: ligand-based 1D-NMR; type: binding
T1 sequence (Q16611 15-186): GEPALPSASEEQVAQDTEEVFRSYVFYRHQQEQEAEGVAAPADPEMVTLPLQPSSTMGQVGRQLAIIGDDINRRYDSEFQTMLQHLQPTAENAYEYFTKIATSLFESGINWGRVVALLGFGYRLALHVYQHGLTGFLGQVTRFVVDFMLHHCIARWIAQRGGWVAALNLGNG

BAK [2] = target: T1, BAK; test: ligand-based 1D-NMR, […] 2D-NMR titration, competitive TR-FRET, nanoDSF; type: binding

SMILES	IC50 (BAK [1]) [mM]	IC50 (BAK [2]) [mM]
Cc1ccc(Cl)c2sc(N)nc12 [H6, SJ572946]	0.57	–
Cc1ccc(C)c2sc(N)nc12 [A3]	–	1.97
